From PubChem BioAssay AID2031 (NMMLSC, 2009)

Target: Rab7 GTPase wild-type (dog), GST fusion
Test: Rab7 GTP binding inhibitors, analog potency, SAR follow-up, biochemical, oxadiazole analogs, multiplex bead flow cytometry (AID 2031)
Conditions: bead-based flow cytometry, Bodipy-FL-GTP binding; Ki calculated from EC50

## COc1ccc(-c2cc(CCC(=O)N3CCN(c4cc(C)ccc4C)CC3)on2)cc1
  Ki: 20 nM

## Cc1ccc(-c2noc(CCC(=O)N3CCN(c4cc(C)ccc4C)CC3)n2)cc1
  Ki: 290 nM

## Cc1ccc(C)c(N2CCN(C(=O)CCc3nc(-c4ccc(F)cc4)no3)CC2)c1
  Ki: 40 nM

## Cc1ccc(C)c(N2CCN(C(=O)CCc3nc(-c4ccccc4Br)no3)CC2)c1
  Ki: 270 nM

## Cc1ccc(C)c(N2CCN(C(=O)CCc3nc(-c4cccc(F)c4)no3)CC2)c1
  Ki: 510 nM

## COc1ccc(-c2noc(CCC(=O)N3CCN(c4ccccc4Cl)CC3)n2)cc1
  Ki: 150 nM

## COc1ccc(-c2noc(CCC(=O)N3CCN(c4ccccc4C(F)(F)F)CC3)n2)cc1
  Ki: 130 nM

## COc1ccc(-c2noc(CCC(=O)N3CCC(c4cc(C)ccc4C)CC3)n2)cc1
  Ki: 90 nM

## Cc1cccc(-c2noc(CCC(=O)N3CCN(c4cc(C)ccc4C)CC3)n2)c1
  Ki: 70 nM

## Cc1ccc(C)c(N2CCN(C(=O)CCc3nc(-c4ccc(Cl)cc4)no3)CC2)c1
  Ki: 190 nM

## COc1ccc(-c2noc(CCCC(=O)N3CCN(c4cc(C)ccc4C)CC3)n2)cc1
  Ki: 940 nM

## Cc1ccc(C)c(N2CCN(C(=O)CCc3nc(-c4ccccc4)no3)CC2)c1
  Ki: 80 nM

## Cc1ccc(C)c(N2CCN(C(=O)CCc3nc(-c4ccccc4C)no3)CC2)c1
  Ki: 360 nM

## Cc1ccc(C)c(N2CCN(C(=O)CCc3nc(-c4cccc(C(F)(F)F)c4)no3)CC2)c1
  Ki: 50 nM

## COc1ccc(-c2noc(CCC(=O)N3CCN(c4cccc(Cl)c4)CC3)n2)cc1
  Ki: 2030 nM

## Cc1ccc(C)c(N2CCN(C(=O)CCc3nc(-c4cccc(Br)c4)no3)CC2)c1
  Ki: 230 nM

## COc1ccc(-c2noc(CCC(=O)N3CCN(c4ccccc4Br)CC3)n2)cc1
  Ki: 150 nM

## Cc1ccc(C)c(N2CCN(C(=O)CCc3nc(-c4ccc(Br)cc4)no3)CC2)c1
  Ki: 100 nM

## COc1cccc(-c2noc(CCC(=O)N3CCN(c4cc(C)ccc4C)CC3)n2)c1
  Ki: 220 nM

## COc1ccc(-c2noc(CCC(=O)N3CCN(c4cc(C)ccc4C)CC3)n2)cc1
  Ki: 160 nM

## COc1ccc(-c2noc(CCC(=O)N3CCN(c4cccc(C)c4C)CC3)n2)cc1
  Ki: 100 nM

## COc1ccc(-c2noc(CCC(=O)N3CCN(c4ccccc4F)CC3)n2)cc1
  Ki: 40 nM
